Experimental data reported in ChEMBL document CHEMBL1139171, “Synthesis and antifungal activity of 6-arylamino-phthalazine-5,8-diones and 6,7-bis(arylthio)-phthalazine-5,8-diones” (2007).
In brackets after ≈: the same amount, converted by molar mass.

Tests used:
Type in all cases: functional
Candida albicans = experiment: Antifungal activity against Candida albicans Berkout KCCM 50235 after 1 day by broth dilution method; details: KCCM 50235, 24 h
Candida tropicalis = experiment: Antifungal activity against Candida tropicalis Berkout KCCM 50662 after 1 day by broth dilution method
Pichia kudriavzevii = experiment: Antifungal activity against Candida krusei Berkout KCCM 11655 after 1 day by broth dilution method; details: KCCM 11655, 24 h
Cryptococcus neoformans = experiment: Antifungal activity against Cryptococcus neoformans KCCM 50564 after 1 day by broth dilution method; details: KCCM 50564, 24 h
Aspergillus niger = experiment: Antifungal activity against Aspergillus niger KCTC 1231 after 2 days by broth dilution method
Aspergillus flavus = experiment: Antifungal activity against Aspergillus flavus KCCM 11899 after 2 days by broth dilution method
[1] = Candida tropicalis, KCCM 50662, 24 h, read-out: MIC
[2] = Aspergillus niger, KCTC 1231, 48 h, read-out: MIC
[3] = Aspergillus flavus, KCCM 11899, 48 h, read-out: MIC

| MIC (Candida albicans) [µg/mL] | MIC (Candida tropicalis; [1]) [µg/mL] | MIC (Pichia kudriavzevii) [µg/mL] | MIC (Cryptococcus neoformans) [µg/mL] | MIC (Aspergillus niger; [2]) [µg/mL] | MIC (Aspergillus flavus; [3]) [µg/mL] | MIC (Candida tropicalis) [µg/mL] | MIC (Aspergillus niger) [µg/mL] | MIC (Aspergillus flavus) [µg/mL] | SMILES |
| --- | --- | --- | --- | --- | --- | --- | --- | --- | --- |
| 25 (≈ 70.7 µM) | 12.5 (≈ 35.3 µM) | 100 (≈ 283 µM) | 50 (≈ 141 µM) | 50 (≈ 141 µM) | 50 (≈ 141 µM) | – | – | – | O=C1C(Cl)=C(Nc2cccc(C(F)(F)F)c2)C(=O)c2cnncc21 |
| 50 (≈ 175 µM) | 25 (≈ 87.5 µM) | 25 (≈ 87.5 µM) | 3.2 (≈ 11.2 µM) | 100 (≈ 350 µM) | 25 (≈ 87.5 µM) | – | – | – | O=C1C(Cl)=C(Nc2ccccc2)C(=O)c2cnncc21 |
| 50 (≈ 93.6 µM) | 50 (≈ 93.6 µM) | > 100 | > 100 | > 100 | 50 (≈ 93.6 µM) | – | – | – | O=C1C(Sc2ccc(Br)cc2)=C(Sc2ccc(Br)cc2)C(=O)c2cnncc21 |
| 50 (≈ 186 µM) | 25 (≈ 92.9 µM) | 25 (≈ 92.9 µM) | 6.3 (≈ 23.4 µM) | > 100 | 100 (≈ 371 µM) | – | – | – | O=C1C=C(Nc2ccc(F)cc2)C(=O)c2cnncc21 |
| 3.2 (≈ 11.5 µM) | 100 (≈ 358 µM) | 50 (≈ 179 µM) | 25 (≈ 89.5 µM) | > 100 | > 100 | – | – | – | Cc1ccc(NC2=CC(=O)c3cnncc3C2=O)cc1C |
| 50 (≈ 165 µM) | 50 (≈ 165 µM) | 50 (≈ 165 µM) | 6.3 (≈ 20.7 µM) | > 100 | > 100 | – | – | – | O=C1C(Cl)=C(Nc2ccc(F)cc2)C(=O)c2cnncc21 |
| 6.3 (≈ 15.3 µM) | 6.3 (≈ 15.3 µM) | 100 (≈ 242 µM) | > 100 | 12.5 (≈ 30.3 µM) | > 100 | – | – | – | O=C1C(Sc2ccc(F)cc2)=C(Sc2ccc(F)cc2)C(=O)c2cnncc21 |
| 100 (≈ 245 µM) | > 100 | > 100 | > 100 | > 100 | > 100 | – | – | – | O=C1C(Sc2ccc(O)cc2)=C(Sc2ccc(O)cc2)C(=O)c2cnncc21 |
| 25 (≈ 57.3 µM) | 100 (≈ 229 µM) | 100 (≈ 229 µM) | > 100 | 12.5 (≈ 28.6 µM) | > 100 | – | – | – | COc1ccc(SC2=C(Sc3ccc(OC)cc3)C(=O)c3cnncc3C2=O)cc1 |
| – | 100 (≈ 266 µM) | – | – | 6.3 (≈ 16.7 µM) | > 100 | >100 | 6.3 (≈ 16.7 µM) | 100 (≈ 266 µM) | O=C1C(Sc2ccccc2)=C(Sc2ccccc2)C(=O)c2cnncc21 |
| > 100 | > 100 | 100 (≈ 689 µM) | 25 (≈ 172 µM) | > 100 | 100 (≈ 689 µM) | – | – | – | Nc1cccc2cnncc12 |
| 12.5 (≈ 44.4 µM) | 6.3 (≈ 22.4 µM) | 12.5 (≈ 44.4 µM) | 6.3 (≈ 22.4 µM) | 25 (≈ 88.9 µM) | 25 (≈ 88.9 µM) | – | – | – | COc1ccc(NC2=CC(=O)c3cnncc3C2=O)cc1 |
| 12.5 (≈ 28.1 µM) | 100 (≈ 225 µM) | > 100 | > 100 | 6.3 (≈ 14.1 µM) | > 100 | – | – | – | O=C1C(Sc2cccc(Cl)c2)=C(Sc2cccc(Cl)c2)C(=O)c2cnncc21 |
| > 100 | > 100 | 100 (≈ 624 µM) | 6.3 (≈ 39.3 µM) | > 100 | 100 (≈ 624 µM) | – | – | – | Nc1ccc(N)c2cnncc12 |
| 12.5 (≈ 37.9 µM) | 3.2 (≈ 9.69 µM) | 12.5 (≈ 37.9 µM) | 12.5 (≈ 37.9 µM) | 50 (≈ 151 µM) | 50 (≈ 151 µM) | – | – | – | O=C1C=C(Nc2ccc(Br)cc2)C(=O)c2cnncc21 |
| 12.5 (≈ 30.9 µM) | 50 (≈ 124 µM) | > 100 | > 100 | 6.3 (≈ 15.6 µM) | 100 (≈ 247 µM) | – | – | – | Cc1cccc(SC2=C(Sc3cccc(C)c3)C(=O)c3cnncc3C2=O)c1 |
| 12.5 (≈ 39 µM) | 12.5 (≈ 39 µM) | 6.3 (≈ 19.7 µM) | 100 (≈ 312 µM) | > 100 | > 100 | – | – | – | O=C1C(Cl)=C(Nc2ccc(Cl)cc2)C(=O)c2cnncc21 |
| 25 (≈ 78.1 µM) | 25 (≈ 78.1 µM) | 25 (≈ 78.1 µM) | 3.2 (≈ 10 µM) | 12.5 (≈ 39 µM) | 25 (≈ 78.1 µM) | – | – | – | O=C1C(Cl)=C(Nc2cccc(Cl)c2)C(=O)c2cnncc21 |
| 25 (≈ 68.6 µM) | 12.5 (≈ 34.3 µM) | 25 (≈ 68.6 µM) | 3.2 (≈ 8.78 µM) | 25 (≈ 68.6 µM) | 25 (≈ 68.6 µM) | – | – | – | O=C1C(Cl)=C(Nc2ccc(Br)cc2)C(=O)c2cnncc21 |
| 12.5 (≈ 30.4 µM) | 12.5 (≈ 30.4 µM) | 12.5 (≈ 30.4 µM) | 100 (≈ 243 µM) | > 100 | 50 (≈ 121 µM) | – | – | – | O=C1C(Cl)=C(Nc2ccc(I)cc2)C(=O)c2cnncc21 |
| 6.3 (≈ 23.7 µM) | 12.5 (≈ 47.1 µM) | 12.5 (≈ 47.1 µM) | 6.3 (≈ 23.7 µM) | 50 (≈ 188 µM) | 25 (≈ 94.2 µM) | – | – | – | Cc1ccc(NC2=CC(=O)c3cnncc3C2=O)cc1 |
| 25 (≈ 77.7 µM) | 3.2 (≈ 9.95 µM) | > 100 | 50 (≈ 155 µM) | 100 (≈ 311 µM) | 100 (≈ 311 µM) | – | – | – | O=C1C(Cl)=C(Nc2ccc(F)c(F)c2)C(=O)c2cnncc21 |
| 3.2 (≈ 7.14 µM) | 12.5 (≈ 27.9 µM) | > 100 | 100 (≈ 223 µM) | 3.2 (≈ 7.14 µM) | 25 (≈ 55.8 µM) | – | – | – | O=C1C(Sc2ccc(F)c(F)c2)=C(Sc2ccc(F)c(F)c2)C(=O)c2cnncc21 |

| SMILES | MIC (Candida albicans) [µg/mL] | MIC (Candida tropicalis; [1]) [µg/mL] | MIC (Pichia kudriavzevii) [µg/mL] | MIC (Cryptococcus neoformans) [µg/mL] | MIC (Aspergillus niger; [2]) [µg/mL] | MIC (Aspergillus flavus; [3]) [µg/mL] | MIC (Candida tropicalis) [µg/mL] | MIC (Aspergillus niger) [µg/mL] | MIC (Aspergillus flavus) [µg/mL] |
| --- | --- | --- | --- | --- | --- | --- | --- | --- | --- |
| Nc1nc(=O)[nH]cc1F [FLUCYTOSINE] | 25 (≈ 194 µM) | 12.5 (≈ 96.8 µM) | 50 (≈ 387 µM) | 12.5 (≈ 96.8 µM) | 25 (≈ 194 µM) | 100 (≈ 775 µM) | – | – | – |
